Structures can show the parent of a compound that is named as a salt. Where two headings read alike, the source gives them in different places.
Tests used:
[1] = molecular target: T1, NMDA associated strychnine-insensitive glycine modulatory site (Rattus norvegicus, UniProt P35439); assay: Enhancement of [^3 H]TCP Binding; format: biochemical, rat (Sprague Dawley); conditions: for Emax: read-out: Enhancement of [^3 H]TCP Binding, % maximal glycine response
T1 construct: prepared from cortical tissue obtained from male Sprague Dawley rats; from tissue; host or cells: male Sprague Dawley rat cortex, crude synaptosomal homogenate

[2] = molecular target: T2, glycine binding site associated with the N-methyl-D-aspartate (NMDA) receptor complex (Rattus norvegicus, UniProt P35439); assay: Displacement of [^3 H]Glycine Binding; design: species or system rat (Wistar)
T2 construct: Cortices of male Wistar rats are dissected over ice; from tissue; host or cells: male Wistar rat cortex, Triton-treated membranes
Method: Aliquots of 20 μl to the assay tube will give a final concentration of 10^-3 M.
4. […] Aliquots of 50 μl are added to yield a final assay concentration of 10 nM.
6. […] A stock solution of Triton-X 100, 10% can be prepared and stored in the refrigerator. Dilute 1.0 ml of Triton-X 100 to 10.0 ml with distilled water. On the day of the assay, the tissue homogenate (1:15 dilution) is preincubated with an aliquot of the 10% solution to give a final concentration of 0.04% (v/v).
Three cortices are pooled for one preparation.
1. Prepare assay tubes in triplicate.
2. Following the addition of the tissue, the tubes are incubated for 20 minutes in an ice-bath at 0°-4° C.
3. […] IC50 values for the competing compound are calculated by log-probit analysis of the data.

serotonin (5HT) uptake = molecular target: T3, serotonin (5HT) uptake (Rattus norvegicus, UniProt P31652); assay: ^3 H-Serotonin Uptake in Rat Whole Brain Synaptosomes; format: biochemical, rat (Wistar)
T3 construct: from tissue; host or cells: male Wistar rat whole brain minus cerebella, crude synaptosomes (S1)
T3 sequence (P31652 whole entry): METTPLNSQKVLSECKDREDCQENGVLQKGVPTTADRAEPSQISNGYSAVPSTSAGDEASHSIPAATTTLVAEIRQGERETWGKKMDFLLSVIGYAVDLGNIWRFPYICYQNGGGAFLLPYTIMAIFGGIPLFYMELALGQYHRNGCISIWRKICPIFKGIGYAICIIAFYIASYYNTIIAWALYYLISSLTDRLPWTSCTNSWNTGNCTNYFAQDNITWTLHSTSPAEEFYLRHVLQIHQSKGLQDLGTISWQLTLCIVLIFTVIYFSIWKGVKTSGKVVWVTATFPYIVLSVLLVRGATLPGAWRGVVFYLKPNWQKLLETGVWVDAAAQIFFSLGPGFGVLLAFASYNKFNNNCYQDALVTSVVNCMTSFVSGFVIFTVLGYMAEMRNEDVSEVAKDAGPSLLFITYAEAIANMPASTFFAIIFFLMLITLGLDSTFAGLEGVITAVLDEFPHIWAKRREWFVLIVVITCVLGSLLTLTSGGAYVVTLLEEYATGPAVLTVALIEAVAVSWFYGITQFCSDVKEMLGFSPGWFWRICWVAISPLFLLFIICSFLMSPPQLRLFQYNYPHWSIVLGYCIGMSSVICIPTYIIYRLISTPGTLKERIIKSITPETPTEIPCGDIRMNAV
Method: A. Animals: Male CR Wistar rats (100-125 g).
3. […] This is used to dilute the specific activity of radiolabeled 5HT.
The dilution factor is 0.8.
5. For most assays, a 1 mM solution of the test compound is made up in suitable solvent and serially diluted such that the final concentration in the assay ranges from 2×10^-8 to 2×10^-5 M. Seven concentrations are used for each assay.
Male Wistar rats are decapitated and the brain rapidly removed. […] Homogenization should be done with 4-5 up and down strokes at medium speeds to minimize synaptosome lysis. […] The supernatant (S1) is decanted and is used for uptake experiments.
Tubes are incubated at 37° C. under a 95% O2 /5% CO2 atmosphere for 5 minutes. For each assay, 3 tubes are incubated with 20 μl of vehicle at 0° C. in an ice bath. After incubation all tubes are immediately centrifuged at 4000 g for 10 minutes. The supernatant fluid is aspirated and the pellets dissolved by adding 1 ml of solubilizer (Triton X-100+50% EtOH, 1:4 v/v). The tubes are vigorously vortexed, decanted into scintillation vials, and counted in 10 ml of Liquiscint scintillation counting cocktail. Active uptake is the difference between cpm at 37° C. and 0° C. The percent inhibition at each drug concentration is the mean of three determinations. IC50 values are derived from log-probit analysis.

5HT3 Receptor = molecular target: T4, 5HT3 Receptor (Homo sapiens, UniProt P46098); assay: 5HT3 Receptor Binding Assay
T4 sequence (P46098 24-478): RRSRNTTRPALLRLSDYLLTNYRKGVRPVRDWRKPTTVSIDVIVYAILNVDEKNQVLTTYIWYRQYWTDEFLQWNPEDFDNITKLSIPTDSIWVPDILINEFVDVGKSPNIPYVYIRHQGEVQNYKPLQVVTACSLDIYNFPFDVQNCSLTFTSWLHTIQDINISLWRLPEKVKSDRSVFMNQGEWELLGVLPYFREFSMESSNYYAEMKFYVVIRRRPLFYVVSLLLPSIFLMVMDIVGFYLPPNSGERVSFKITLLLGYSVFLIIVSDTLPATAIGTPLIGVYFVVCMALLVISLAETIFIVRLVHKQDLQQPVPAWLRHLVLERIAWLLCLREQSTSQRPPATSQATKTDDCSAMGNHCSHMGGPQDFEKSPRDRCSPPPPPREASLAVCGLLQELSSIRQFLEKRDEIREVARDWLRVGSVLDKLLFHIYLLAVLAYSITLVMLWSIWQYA

[3] = molecular target: T5, ^3 H-Norepinephrine reuptake (Rattus norvegicus, UniProt Q63380); assay: Inhibition of Biogenic Amine Reuptake, ^3 H-Norepinephrine (WB); format: biochemical
T5 construct: from tissue; host or cells: whole brain (WB), rat inferred
T5 sequence (Q63380 1-617): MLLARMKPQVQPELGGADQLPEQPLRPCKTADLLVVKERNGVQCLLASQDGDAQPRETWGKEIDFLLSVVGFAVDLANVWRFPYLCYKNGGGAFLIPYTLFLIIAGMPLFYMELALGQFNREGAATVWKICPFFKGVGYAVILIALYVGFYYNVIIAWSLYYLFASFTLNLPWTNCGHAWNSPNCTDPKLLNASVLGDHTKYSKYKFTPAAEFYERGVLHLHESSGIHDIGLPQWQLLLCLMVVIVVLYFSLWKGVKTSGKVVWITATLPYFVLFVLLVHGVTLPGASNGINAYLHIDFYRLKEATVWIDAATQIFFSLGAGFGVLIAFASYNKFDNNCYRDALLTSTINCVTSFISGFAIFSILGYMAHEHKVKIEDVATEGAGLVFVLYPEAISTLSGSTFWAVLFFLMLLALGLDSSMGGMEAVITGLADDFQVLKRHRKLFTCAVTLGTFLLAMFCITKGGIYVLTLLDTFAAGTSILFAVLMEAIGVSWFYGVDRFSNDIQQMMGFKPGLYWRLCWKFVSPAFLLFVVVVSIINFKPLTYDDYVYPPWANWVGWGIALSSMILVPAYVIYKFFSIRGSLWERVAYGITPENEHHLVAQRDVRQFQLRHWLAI

^3 H-Dopamine reuptake = molecular target: T6, ^3 H-Dopamine reuptake (Rattus norvegicus, UniProt P23977); assay: Inhibition of Biogenic Amine Reuptake, ^3 H-Dopamine (Str); format: biochemical; conditions: str. = striatum
T6 construct: str. = striatum; from tissue; host or cells: striatum, rat inferred
T6 sequence (P23977 whole entry): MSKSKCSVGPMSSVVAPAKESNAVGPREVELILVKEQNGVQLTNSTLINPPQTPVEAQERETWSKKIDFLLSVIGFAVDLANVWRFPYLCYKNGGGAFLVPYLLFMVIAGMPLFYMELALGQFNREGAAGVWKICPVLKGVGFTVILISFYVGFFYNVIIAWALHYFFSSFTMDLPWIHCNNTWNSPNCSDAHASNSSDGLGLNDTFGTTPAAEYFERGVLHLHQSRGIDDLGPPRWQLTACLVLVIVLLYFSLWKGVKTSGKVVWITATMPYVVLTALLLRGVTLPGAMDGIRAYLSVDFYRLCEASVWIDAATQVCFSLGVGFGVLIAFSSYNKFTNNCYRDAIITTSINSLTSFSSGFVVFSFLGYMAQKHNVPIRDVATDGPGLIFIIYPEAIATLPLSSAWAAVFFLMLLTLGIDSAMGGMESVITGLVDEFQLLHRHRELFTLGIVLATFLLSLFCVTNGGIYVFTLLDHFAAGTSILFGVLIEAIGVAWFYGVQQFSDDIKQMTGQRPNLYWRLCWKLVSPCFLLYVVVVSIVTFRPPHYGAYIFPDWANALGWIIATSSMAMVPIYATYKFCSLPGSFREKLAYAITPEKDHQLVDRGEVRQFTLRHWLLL

Structure (SMILES): NCC(=O)Nc1csc2ncccc12 [2-Amino-N-(thieno[2,3-b]pyridin-3-yl)acetamide]
- EC50 ([1]; rat cortical homogenate, 2.5 nM [^3 H]TCP, 10^-7 M L-glutamic acid): 14.4 µM
- Emax [1]: 39%
- IC50 [2]: 21.8 µM

Structure (SMILES): CCCN(c1ccncc1)c1csc2ncccc12 [3-(Propyl-4-pyridinylamino)-thieno[2,3-b]-pyridine hydrochloride]
- IC50 (serotonin (5HT) uptake): 0.071 µM
- IC50 (5HT3 Receptor): 4.6 µM
- IC50 [3]: 0.71 µM

Structure (SMILES): CCCN(c1ccncc1)c1csc2cnccc12 [3-(Propyl-4-pyridinylamino)thieno[2,3-c]pyridine]
- IC50 (serotonin (5HT) uptake; […]): 0.54 µM

Structure (SMILES): CN(C)CCCN1c2ccccc2CCc2ccc(Cl)cc21 [Clomipramine, reference compound]
- IC50 (^3 H-Dopamine reuptake): 31.5 µM
- IC50 (5HT3 Receptor): > 10 µM

Structure (SMILES): N[C@@H]1CONC1=O [D-cycloserine, reference compound]
- Emax [1]: 80%

Structure (SMILES): NCC(=O)O [Glycine, glycine, reference compound]
- Emax [1]: 100%

Source: patent publication US5252581A, “Substituted aminothienopyridines, pharmaceutical composition and use” (Hoechst-Roussel Pharmaceuticals Inc., priority 1992, dated 1993)
